# Laboratory results reported in patent US12018041B2, “Metal tin cyclized perylene diimide derivative, method for preparing the same, and method for using the same” (Dalian University of Technology, priority 2019, dated 2024).
# What was measured:
# [1] = Transient absorption spectrum and triplet decay; assay type: physicochemical; settings: dynamic absorption fitting at 485 nm in the transient absorption spectrum
# Method: (2) The transient absorption spectrum of 6-undecylamine derived tin cyclized perylene diimide (shown in FIG. 2) was tested, and a strong excited triplet absorption at 400 nm-515 nm was detected.
# The decay time is 17 μs. 6-undecylamine derived tin cyclized perylene diimide has a relatively long triplet time life.
# [2] = Singlet oxygen quantum yield by DPBF capture in DCM; assay type: physicochemical; settings: absorbance change at 414 nm
# Text: (4) The triplet energy of the photosensitizer can be transferred to triplet oxygen molecules (^3O2), to produce singlet oxygen molecules (^1O2). 1,3-diphenylisobenzofuran (DPBF) is used to capture singlet oxygen, and at the same time, DPBF itself is oxidized by ^1O2, resulting in a decrease in the absorption peak of DPBF at 414 nm in the UV-visible absorption spectrum. The singlet oxygen quantum yield of the photosensitizer molecule can be calculated by monitoring the absorbance change of DPBF at 414 nm. FIG. 4 is a graph showing decay of a UV-visible absorption of DPBF in DCM with time under the influence of 6-undecylamine derived tin cyclized perylene diimide as a photosensitizer. It is known from calculation that the singlet oxygen quantum yield of 6-undecylamine derived tin cyclized perylene diimide is 40%.
# [3] = UV-Vis absorption spectrum in a solution state; assay type: physicochemical; settings: compared with the corresponding perylene diimide without tin ring
# [4] = test system: cervical cancer cells; test: DCFH-DA reactive oxygen imaging in cervical cancer cells; assay type: cell-based; settings: cervical cancer cells with DCFH-DA
# Text: (5) The application of photosensitizers to photodynamic therapy requires the photosensitizers to have low cytotoxicity and capability of entering cells, and to achieve better singlet oxygen output in the cells. In cervical cancer cells, the fluorescent probe DCFH-DA, as a reactive oxygen detection reagent, is non-fluorescent and can freely penetrate the cell membrane to enter the cell. The reactive oxygen species (single oxygen) in the cells can oxidize the non-fluorescent DCFH to produce a fluorescent DCF, and the level of the reactive oxygen species can be known by detecting the fluorescence intensity of DCF. […] In the figure, fluorescence images of the cervical cancer cells, which are cultured in the presence of 6-undecylamine derived tin cyclized perylene diimide and DCFH-DA, subjected to no light, and 10 s, 20 s, 30 s of […] green light irradiation are respectively presented from left to right. It is known from the figure that the singlet oxygen generated from photosensitization of 6-undecylamine derived tin cyclized perylene diimide oxidizes DCFH to produce fluorescent DCF, which makes the fluorescence of cervical cancer cells appear by imaging, and the imaging effect becomes better along with the time.
Compound,Triplet decay time [1] [μs],Singlet oxygen quantum yield [2] [%],Absorption spectrum [3],irradiation time after which fluorescence intensity of cervical cancer cells no longer changes ([4]; 420 nm green light irradiation) [s],"singlet oxygen effect in cells (DCF fluorescence) ([4]; no light and 10 s, 20 s, 30 s of 420 nm green light irradiation)"
CCCCCC(CCCCC)N1C(=O)c2ccc3c4ccc5c6c(c[c]7c(c8[c](cc(c2c38)C1=O)[Sn]7([CH2]CCC)[CH2]CCC)c64)C(=O)N(C(CCCCC)CCCCC)C5=O [6-undecylamine derived tin cyclized perylene diimide],17,40,obvious red shift,20,good singlet oxygen effect in cells
CCCCCC(CC(C)CCC)N1C(=O)c2ccc3c4ccc5c6c(c[c]7c(c8[c](cc(c2c38)C1=O)[Sn]7([CH2]CCC)[CH2]CCC)c64)C(=O)N(C(CCCCC)CC(C)CCC)C5=O (centres unmarked) [Example B4],17,47,red shift,–,–
CCC[CH2][Sn]1([CH2]CCC)[c]2cc3c4c(ccc5c6ccc7c8c(c[c]1c(c2c45)c86)C(=O)N(CC(C)C)C7=O)C(=O)N(CC(C)C)C3=O [Example B6],18,29,red shift,–,–
CCC[CH2][Sn]1([CH2]CCC)[c]2cc3c4c(ccc5c6ccc7c8c(c[c]1c(c2c45)c86)C(=O)N(CCCC(C)C)C7=O)C(=O)N(CCCCC(CC)CCC)C3=O (centres unmarked) [Example B10],12,26,red shift,–,–
CCC[CH2][Sn]1([CH2]CCC)[c]2cc3c4c(ccc5c6ccc7c8c(c[c]1c(c2c45)c86)C(=O)N(c1ccc(C(C)(C)C)cc1)C7=O)C(=O)N(c1ccc(C(C)(C)C)cc1)C3=O [Example B14],14,33,red shift,–,–
CCC[CH2][Sn]1([CH2]CCC)[c]2cc3c4c(ccc5c6ccc7c8c(c[c]1c(c2c45)c86)C(=O)N(c1cccc2[nH]ncc12)C7=O)C(=O)N(c1cccc2[nH]ncc12)C3=O [Example B16],19,46,red shift,–,–
CCC[CH2][Sn]1([CH2]CCC)[c]2cc3c4c(ccc5c6ccc7c8c(c[c]1c(c2c45)c86)C(=O)N(c1cccc2ccccc12)C7=O)C(=O)N(c1cccc2ccccc12)C3=O [Example B17],11,36,red shift,–,–
CCC[CH2][Sn]1([CH2]CCC)[c]2cc3c4c(ccc5c6ccc7c8c(c[c]1c(c2c45)c86)C(=O)N(c1ccncc1)C7=O)C(=O)N(c1ccncc1)C3=O [Example B20],25,42,red shift,–,–
CCC[CH2][Sn]1([CH2]CCC)[c]2cc3c4c(ccc5c6ccc7c8c(c[c]1c(c2c45)c86)C(=O)N(C1CCNCC1)C7=O)C(=O)N(C1CCNCC1)C3=O [Example B22],21,44,red shift,–,–
